Results on 15 compounds are retold here after patent publication US8883763B2 (Universite Joseph Fourier, priority 2010, dated 2014).

Data set [1] addresses T1, PP1α (PP1CA) (Oryctolagus cuniculus, UniProt P62139).
T1 construct: purchased New England Biolabs P0754
Nature of the data set: Protein phosphatase test (PP1 activity, DiFMUP fluorescent substrate). It counts as biochemical. The note with it: PP1CA at 80 mU, fluorescent substrate (50 μM), molecules from 50 μM to 50 nM; read-out: PP1 Inhibition IC50. In short, it runs like this: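 PP1α (30 or 80 mU) in 100 mM Tris-HCl pH 7.5, 4 mM DTT, 0.2 mM EDTA, 0.5 mM MnCl2 was preincubated 15 min with compound (50 μM to 50 nM), then given 60 μM DiFMUP for 20 min at 37 °C. Phosphatase activity was read as fluorescence at 355-460 nm, three times in duplicate.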

For data set [2], the system named is bovine brain tubulin. The data set is described as follows: In vitro tubulin polymerization test (turbidimetry at 350 nm). It counts as biochemical. To be noted: molecules at 50 μM, calculated at t=3000 s, DMSO control = 100%. In short, it runs like this: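 Bovine brain tubulin was assembled at 37 °C in BRB80 (80 mM K-PIPES pH 6.8, 1 mM MgCl2, 1 mM EGTA) with 1 mM GTP. The 50 μM tests used compounds at 50 μM, run in triplicate. Turbidity at 350 nm was read at t=3000 s and expressed relative to control taken as 100%.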

The test system of data set [3] is HeLa cells. The data set is described as follows: Indirect immunofluorescence: effect on HeLa cells (mitotic arrest, microtubule depolymerization). Format: cell-based, human. Also on record: key to Effect on Hela at 25 μM / Effect on Hela at 100 μM / Effect on Hela at 50 and 100 μM / Effect on Hela at 50 μM: —: −: no activity on the cells at 25 μM (if there is an effect at high concentrations, this is specified in the table).; *: weak activity (MA and/or slight depolymerization of the MTs and/or slight inhibition of proliferation),; **: average activity (MA and/or moderate depolymerization of the MTs and/or moderate inhibition of proliferation),; ***: strong activity (MA and/or pronounced depolymerization of the MTs and/or pronounced inhibition of proliferation),; ****: very strong activity (MA and/or very pronounced depolymerization of the MTs and/or strong inhibition of proliferation). The note with it: 24 hours; for Effect on Hela at 25 μM: mitotic index and/or depolymerization of the MTs. In short, it runs like this:
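HeLa cells exposed 24 h to compound (100 μM to 50 nM; primary series 1–10 μM), DMSO controls. PFA/glutaraldehyde-fixed cells immunostained for α-tubulin, actin (phalloidin) and DNA (Hoechst); fluorescence microscopy scored phenotypes and mitotic index, with mitotic index and/or MT depolymerization evaluated at 25 μM.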

Data set [4] concerns HMEC cells. The data set is described as follows: Proliferation of HMEC cells (GI50). It counts as cell-based. The note with it: Homo sapiens, 120 h, 50 μM to 1 nM for 5 days. In short, it runs like this:
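Cells seeded at 1,000/well (10% confluence) and exposed 5 days (120 h) to compound from 1 nM up to 50–100 μM. Live cells counted by Hoechst 33342 staining under fluorescence microscopy; GI50 is concentration halving proliferation versus control, mean of two triplicate experiments.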

The subject of data set [5] is PP1C. Nature of the data set: Affinity chromatography on immobilized compound and immunoblotting. The note with it: Xenopus egg extracts; immunoblot anti-PP1C and anti-PP2A; PP2A only traces as in control. It counts as binding, Xenopus laevis. How it is done:
Xenopus egg cytoplasmic extracts were prepared from unfertilized Xenopus laevis eggs according to the method described (Desai A et al., Methods Cell Biol. 1999; 61: pp 385-412).
The molecule 37 was immobilized on a sepharose resin activated by an N-hydroxysuccinimide (NHS) group (GE Healthcare #17-0906-01) as follows: 100 μg of the molecule 37 per ml of NHS Sepharose in PBS, pH 8.3, for 1 hour at ambient temperature. The sepharose coupled with molecule 37 was designated “compound 6” resin, whereas in parallel, another “control” resin was produced with incubation in 0.5 M Monoethanolamine (MEA), pH 8.3, under the same conditions, in order to neutralize the NHS functions. After several washings with PBS, pH 8.3, the NHS functions remaining free were blocked with 0.5 M MEA for 30 minutes. Once they had been thoroughly washed with PBS, the “control” and “compound 6” resins were incubated with 1 ml of Xenopus egg extracts diluted 1:1 in CSF-XB buffer containing protease inhibitors (#1 873 580 Roche®), for 1 hour under stirring at 4° C. After 2 washings with PBST, the proteins of the extract remaining attached were eluted with 100 μl of electrophoresis SDS charge buffer (Laemmli, U.K., Cleavage of structural proteins during the assembly of the head of bacteriophage T4. Nature 1970; 227, 680-685) enriched with 6M urea. […]
On the technique in general: In western blotting, separated proteins are transferred to a membrane and probed.

The conditions of data set [6]: trials discontinued; cited from earlier work.
The test system of data set [7] is PP1 and PP2A. To be noted: cited from earlier work.
The conditions of data set [8]: due to its structural instability; cited from earlier work.

Broadly, the IC50 is the concentration that gives 50% inhibition. For orientation: GI50 means the concentration that inhibits growth by half. Broadly, the melting point is the temperature of the solid-liquid transition.

T1 sequence (P62139 whole entry): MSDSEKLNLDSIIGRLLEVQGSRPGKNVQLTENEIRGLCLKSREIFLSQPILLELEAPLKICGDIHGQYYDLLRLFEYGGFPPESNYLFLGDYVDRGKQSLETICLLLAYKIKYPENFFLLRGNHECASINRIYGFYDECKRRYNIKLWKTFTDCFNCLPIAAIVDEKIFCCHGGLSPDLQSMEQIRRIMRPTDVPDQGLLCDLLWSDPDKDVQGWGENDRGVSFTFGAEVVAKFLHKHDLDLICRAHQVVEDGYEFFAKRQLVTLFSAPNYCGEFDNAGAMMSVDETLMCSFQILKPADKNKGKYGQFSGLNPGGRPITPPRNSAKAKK

The compound `C#Cc1ccc(-c2[nH]c(=O)c3cc(OC)ccc3c2[N+](=O)[O-])cc1` [Compound 36, 3-(4-Ethynylphenyl)-7-methoxy-4-nitroisoquinolin-1(2H)-one] showed a melting point of 246 to 248 °C. Also, the IC50 in [1] is 10 to 24 µM. Further, the Tubulin polymerization inhibition entry in data set [2] is listed as “+++ ((+++) signifies that the molecule induces tubulin assembly inhibition in vitro of more than 50% with respect to the DMSO control.)”. For the same compound, in [3], the “Effect on Hela at 25 μM” value is “****”. For the same compound, the GI50 in [4] was ≤ 0.1 µM.
Consider `COc1ccc2c([N+](=O)[O-])c(-c3ccc(OCCOCCOCCOCCN)cc3)[nH]c(=O)c2c1` [Compound 37, 3-(4-(2-(2-(2-(2-Aminoethoxy)ethoxy)ethoxy)ethoxy)phenyl)-7-methoxy-4-nitroisoquinolin-1(2H)-one], for which the IC50 in data set [1] was > 50 µM. Besides, the Tubulin polymerization inhibition entry in data set [2] is given as “— ((−) signifies that the molecule induces little or no tubulin assembly inhibition in vitro: 0+ or − −5% of the DMSO control.)”. Further, in data set [3], the “Effect on Hela at 25 μM” value is “—”. Further, the GI50 in [4] was in the range of 25 to 50 µM. For the same compound, in data set [5], the “retention of PP1C by compound immobilized on sepharose resin” value is “specifically retains PP1C”.
For `C#Cc1c(-c2ccc(OC)cc2)nc(OC)c2cc(OC)ccc12` [Compound 38, 4-Ethynyl-1,7-dimethoxy-3-(4-methoxyphenyl)isoquinoline], the melting point is 209 to 210 °C. Also, in data set [1], the IC50 is > 50 µM. In addition, the Tubulin polymerization inhibition entry in data set [2] is “+ ((+) signifies that the molecule induces tubulin assembly inhibition in vitro comprised between 6 and 25% of the DMSO control.)”. Further, in [3], the “Effect on Hela at 25 μM” value is recorded as “—”. In addition, the GI50 in [4] is > 50 µM.
Compound `COc1ccc(-c2[nH]c(=O)c3cc(OC)ccc3c2-n2cccc2)cc1` [Compound 39, 4-(Pyrrol-1-yl)-7-methoxy-3-(4-methoxyphenyl)isoquinoline-1(2H)-one] displayed a melting point of 238 °C. The IC50 in data set [1] lay in the range of 10 to 24 µM. Further, the Tubulin polymerization inhibition result in [2] is “+ ((+) signifies that the molecule induces tubulin assembly inhibition in vitro comprised between 6 and 25% of the DMSO control.)”. Also, the “Effect on Hela at 25 μM” value in [3] is “—”. The 50% growth inhibitory concentration (GI50) in data set [4] fell in the range of 0.1 to 1 µM.
The compound `COc1ccc(-c2[nH]c(=O)c3cc(OC)ccc3c2N2CCCCC2)cc1` [Compound 40, 4-(Piperidin-1-yl)-7-methoxy-3-(4-methoxyphenyl)isoquinoline-1(2H)-one] yielded a melting point of 206 °C. For the same compound, the half-maximal inhibitory concentration (IC50) in [1] was > 50 µM. Also, the Tubulin polymerization inhibition entry in [2] is given as “+++ ((+++) signifies that the molecule induces tubulin assembly inhibition in vitro of more than 50% with respect to the DMSO control.)”. In addition, the “Effect on Hela at 25 μM” value in [3] is listed as “—”. This compound also came in with a GI50 in data set [4] of 0.1 to 1 µM.
For `COc1ccc2cc(-c3ccc(OCc4ccccc4)cc3)[nH]c(=O)c2c1` [Compound 44, 3-(4-(Benzyloxy)phenyl)-7-methoxyisoquinolin-1(2H)-one] the same measures were > 260 °C, 10 to 24 µM, “— ((−) signifies that the molecule induces little or no tubulin assembly inhibition in vitro: 0+ or − −5% of the DMSO control.)”, “—” and 25 to 50 µM.
Consider `COc1ccc2cc(-c3ccc(O)cc3)[nH]c(=O)c2c1` [Compound 45, 3-(4-Hydroxyphenyl)-7-methoxyisoquinolin-1(2H)-one], for which the melting point was 255 °C. Besides, in data set [1], the IC50 is > 50 µM. Further, the Tubulin polymerization inhibition result in data set [2] was “++ ((++) signifies that the molecule induces tubulin assembly inhibition in vitro comprised between 26 and 50% of the DMSO control.)”. Moreover, the “Effect on Hela at 25 μM” value in data set [3] is “****”. The same compound displayed a GI50 in data set [4] of 0.1 to 1 µM.
For the compound `COc1ccc2c([N+](=O)[O-])c(-c3ccc(OCc4ccccc4)cc3)[nH]c(=O)c2c1` [Compound 46, 3-(4-(Benzyloxy)phenyl)-7-methoxy-4-nitroisoquinolin-1(2H)-one], the melting point fell in the range of 252 to 254 °C. The IC50 in data set [1] was 10 to 24 µM. The Tubulin polymerization inhibition result in [2] was “+ ((+) signifies that the molecule induces tubulin assembly inhibition in vitro comprised between 6 and 25% of the DMSO control.)”. For the same compound, the “Effect on Hela at 25 μM” value in [3] is recorded as “—”. Besides, in [4], the GI50 is > 50 µM.
In the case of `COC(=O)c1nnn(-c2c(-c3ccc(OC)cc3)[nH]c(=O)c3cc(OC)ccc23)c1C(=O)OC` [Compound 48, Dimethyl 1-[7-methoxy-3-(4-methoxyphenyl)-1-oxo-1,2-dihydroisoquinolin-4-yl]-1H-[1,2,3]triazole-4,5-dicarboxylate], the melting point came to 220 °C. In addition, the IC50 in data set [1] was > 50 µM. Further, the Tubulin polymerization inhibition entry in data set [2] is given as “— ((−) signifies that the molecule induces little or no tubulin assembly inhibition in vitro: 0+ or − −5% of the DMSO control.)”. Also, in data set [3], the “Effect on Hela at 25 μM” value is listed as “—”. In addition, the “Effect on Hela at 50 μM” value in data set [3] (50 μM) was “*”. For the same compound, the 50% growth inhibitory concentration (GI50) in [4] was 25 to 50 µM.
Consider `COc1ccc(-c2[nH]c(=O)c3cc(OC)ccc3c2N2CCOCC2)cc1` [Compound 49, 7-Methoxy-3-(4-methoxyphenyl)-4-morpholinoisoquinolin-1(2H)-one], for which the melting point was 139 °C. In data set [1], the IC50 is > 50 µM. Also, in data set [2], the Tubulin polymerization inhibition entry was “+ ((+) signifies that the molecule induces tubulin assembly inhibition in vitro comprised between 6 and 25% of the DMSO control.)”. Besides, the “Effect on Hela at 25 μM” value in data set [3] is “**”. This compound had a GI50 in data set [4] of 0.1 to 1 µM.
Consider `C[C@@]12C(=O)OC(=O)[C@]1(C)[C@H]1CC[C@@H]2O1` [cantharidin], for which the “toxicity in clinical trials” value in data set [6] was “too-high nephrotoxicity”.
For `C[C@@](O)(/C=C/[C@H]1CC=CC(=O)O1)[C@@H](C[C@@H](O)\C=C/C=C\C=C\CO)OP(=O)(O)O` [fostriecin], in data set [7] (PP2A relative to PP1), the “selectivity for PP2A” value is 40,000 times. In addition, the “activity in phase I clinical trial” value in data set [8] is “inactive”.
With `CO[C@H]([C@H](O)CC(=O)[C@@H](C)[C@@H](O)CC[C@@H](C)[C@@H]1O[C@]2(CC[C@@H](C)[C@H](CC[C@H](C)C(C)=O)O2)CC[C@@H]1C)[C@H](OC(=O)C[C@@H](O)C1=C(C)C(=O)OC1=O)C(C)C` [tautomycin], the “selectivity for PP1 relative to PP2A” value in [7] is given as 4 times.
As to Phosphatidic acid, in data set [7], the “selectivity for PP1 relative to PP2A” value is listed as 100 times.
For tautomycetin, the “selectivity for PP1 relative to PP2A” value in data set [7] is 40 times.
